{"source": "patent US20250230193A1", "about": "“CYCLIC COMPOUND HAVING SELECTIVE KRAS INHIBITORY EFFECT ON HRAS AND NRAS” (CHUGAI SEIYAKU KABUSHIKI KAISHA, priority 2022, published 2025)", "key": {"[1]": {"target": "GDP-bound NRAS wild-type protein (Homo sapiens, UniProt P01111)", "sequence (P01111 whole entry)": "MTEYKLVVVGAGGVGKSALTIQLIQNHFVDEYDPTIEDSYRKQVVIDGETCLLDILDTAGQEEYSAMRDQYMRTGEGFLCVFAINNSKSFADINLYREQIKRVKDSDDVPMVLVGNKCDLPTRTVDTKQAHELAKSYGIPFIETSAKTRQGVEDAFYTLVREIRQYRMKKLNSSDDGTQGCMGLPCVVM", "assay": "Binding to NRAS by surface plasmon resonance (SPR), Single Cycle Kinetics", "settings": "for NRAS/KRAS (ratio of KD value with respect to NRAS to KD value with respect to KRAS): GDP-bound NRAS wild-type vs GDP-bound KRAS wild-type"}, "[2]": {"target": "GDP-bound HRAS wild-type protein (Homo sapiens, UniProt P01112)", "sequence (P01112 whole entry)": "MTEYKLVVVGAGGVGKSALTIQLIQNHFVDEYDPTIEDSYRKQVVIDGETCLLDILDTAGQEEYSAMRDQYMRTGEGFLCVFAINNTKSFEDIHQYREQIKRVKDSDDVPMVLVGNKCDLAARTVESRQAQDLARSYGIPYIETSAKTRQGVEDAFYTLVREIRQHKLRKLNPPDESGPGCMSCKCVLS", "assay": "Binding to HRAS by surface plasmon resonance (SPR), Single Cycle Kinetics", "settings": "for HRAS/KRAS (ratio of KD value with respect to HRAS to KD value with respect to KRAS): GDP-bound HRAS wild-type vs GDP-bound KRAS wild-type"}}, "note": "Where a SMILES comes first, the peptide text is derived from it. Bridges are numbered along the chain shown (N, C = ends). [ ]: non-standard residue; d: D form. The star is where a group is joined. hPhe(3,5-F2-4-CF3) = N[C@@H](CCc1cc(F)c(C(F)(F)F)c(F)c1)C(=O)O; hPhe(3-Cl-4-CF3) = N[C@@H](CCc1ccc(C(F)(F)F)c(Cl)c1)C(=O)O; NPrPhe(4-CF3) = CCCN[C@@H](Cc1ccc(C(F)(F)F)cc1)C(=O)O; NMeGly(cPent) = CN[C@H](C(=O)O)C1CCCC1; NMeD = CN[C@@H](CC(=O)O)C(=O)O; NMeL = CN[C@@H](CC(C)C)C(=O)O; αMeS = C[C@](N)(CO)C(=O)O; Morpholide = C1CN(*)CCO1; NAllylGly = C=CCNCC(=O)O; Ac5c = NC1(C(=O)O)CCCC1; Sar = CNCC(=O)O; tBu = CC(C)(C)*", "data": [{"compound": "CCCN1C(=O)CN(C)C(=O)CN(C)C(=O)[C@H]([C@@H](C)CC)NC(=O)[C@H](CC(C)C)N(C)C(=O)C[C@@H](C(=O)N2CCOCC2)N(C)C(=O)[C@H](C2CCCC2)N(C)C(=O)[C@](C)(COC(C)(C)C)NC(=O)[C@@H]2CCCN2C(=O)[C@H](CCc2cc(F)c(C(F)(F)F)c(F)c2)NC(=O)CN(C)C(=O)[C@@H]1Cc1ccc(C(F)(F)F)cc1", "note": "[PP0764] ([NMeL]I[Sar][Sar][NPrPhe(4-CF3)][Sar][hPhe(3,5-F2-4-CF3)]P[αMeS](tBu)[NMeGly(cPent)][NMeD]-Morpholide; lactam N-11)", "values": [{"measurement": "NRAS/KRAS (ratio of KD value with respect to GDP-bound NRAS wild-type protein to KD value with respect to KRAS)", "setting": "[1]; SPR", "result": "B (a compound having 3 or more and less than 10 is denoted as B)"}, {"measurement": "HRAS/KRAS (ratio of KD value with respect to GDP-bound HRAS wild-type protein to KD value with respect to KRAS)", "setting": "[2]; SPR", "result": "B (a compound having 3 or more and less than 10 is denoted as B)"}]}, {"compound": "C#CC[C@H]1C(=O)N[C@@H]([C@@H](C)CC)C(=O)N(C)CC(=O)N(C)[C@H]2C/C=C\\CCN(C2=O)[C@@H](Cc2ccc(C(F)(F)F)cc2)C(=O)N(C)CC(=O)N[C@@H](CCc2ccc(C(F)(F)F)c(OC)c2)C(=O)N2C[C@@H](C)C[C@H]2C(=O)NC2(CCC2)C(=O)N(C)[C@@H](C2CCCC2)C(=O)N(C)[C@H](C(=O)N(C)CC)CC(=O)N1C", "note": "[PP2061]", "values": [{"measurement": "NRAS/KRAS (ratio of KD value with respect to NRAS to KD value with respect to KRAS)", "setting": "[1]; SPR", "result": "AA (a compound having 20 or more is denoted as AA)"}, {"measurement": "HRAS/KRAS (ratio of KD value with respect to HRAS to KD value with respect to KRAS)", "setting": "[2]; SPR", "result": "A (a compound having 10 or more and less than 20 is denoted as A)"}]}, {"compound": "C=CCN1CC(=O)N(C)CC(=O)N(CCC)[C@@H](Cc2ccc(C(F)(F)F)cc2)C(=O)N(C)CC(=O)N[C@@H](CCc2ccc(C(F)(F)F)c(Cl)c2)C(=O)N2CCC[C@H]2C(=O)NC2(CCCC2)C(=O)N(C)[C@@H](C2CCCC2)C(=O)N(C)[C@H](C(=O)N2CCOCC2)CC(=O)N(C)[C@@H](CC(C)C)C(=O)N[C@@H]([C@@H](C)CC)C1=O", "note": "[PP0749] ([NMeL]I[NAllylGly][Sar][NPrPhe(4-CF3)][Sar][hPhe(3-Cl-4-CF3)]P[Ac5c][NMeGly(cPent)][NMeD]-Morpholide; lactam N-11)", "values": [{"measurement": "NRAS/KRAS (ratio of KD value with respect to GDP-bound NRAS wild-type protein to KD value with respect to KRAS)", "setting": "[1]; SPR", "result": "B (a compound having 3 or more and less than 10 is denoted as B)"}, {"measurement": "HRAS/KRAS (ratio of KD value with respect to GDP-bound HRAS wild-type protein to KD value with respect to KRAS)", "setting": "[2]; SPR", "result": "C (A compound having a KD ratio of 0.1 or more and less than 3 is denoted as C)"}]}, {"compound": "CCC[C@H]1C(=O)N[C@@H]([C@@H](C)CC)C(=O)N(C2CC2)CC(=O)N(C)[C@H]2C/C=C\\CCN(C2=O)[C@@H](Cc2ccc(C)cc2)C(=O)N(C)CC(=O)N[C@@H](CCc2ccc(C(F)(F)F)c(OC)c2)C(=O)N2C[C@H](OCC)C[C@H]2C(=O)NC2(CC(C)(C)C2)C(=O)N(C)[C@@H](CC2CC2)C(=O)N(C)[C@H](C(=O)N(C)C)CC(=O)N1C", "note": "[PP2803]", "values": [{"measurement": "NRAS/KRAS (ratio of KD value with respect to GDP-bound NRAS wild-type protein to KD value with respect to KRAS)", "setting": "[1]; class symbols", "result": "A (a compound having 10 or more and less than 20 is denoted as A)"}, {"measurement": "HRAS/KRAS (ratio of KD value with respect to GDP-bound HRAS wild-type protein to KD value with respect to KRAS)", "setting": "[2]; class symbols", "result": "A (a compound having 10 or more and less than 20 is denoted as A)"}]}, {"compound": "CCO[C@@H]1C[C@H]2C(=O)NC3(CCC3)C(=O)N(C)[C@@H](C3CCCC3)C(=O)N(CCC3CCCC3)[C@H](C(=O)N(C)C)CC(=O)N(C)[C@@H](CC)C(=O)N[C@@H]([C@@H](C)CC)C(=O)N(C)CC(=O)N(C)[C@H]3CCCCCN(C3=O)[C@@H](Cc3ccc(C(F)(F)F)cc3)C(=O)N(C)CC(=O)N[C@@H](CCc3cc(F)c(C(F)(F)F)c(F)c3)C(=O)N2C1", "note": "[PP0636]", "values": [{"measurement": "NRAS/KRAS (ratio of KD value with respect to GDP-bound NRAS wild-type protein to KD value with respect to KRAS)", "setting": "[1]; SPR", "result": "A (a compound having 10 or more and less than 20 is denoted as A)"}, {"measurement": "HRAS/KRAS (ratio of KD value with respect to GDP-bound HRAS wild-type protein to KD value with respect to KRAS)", "setting": "[2]; SPR", "result": "A (a compound having 10 or more and less than 20 is denoted as A)"}]}, {"compound": "CCCOC[C@H]1C(=O)N[C@@H]([C@@H](C)CC)C(=O)N2CCC[C@H]2C(=O)N(C)[C@H]2C/C=C\\CCN(C2=O)[C@@H](CC2CCC(F)(F)CC2)C(=O)N(C)CC(=O)N[C@@H](CCc2ccc(C(F)(F)F)c(OC)c2)C(=O)N2C[C@@H](C)C[C@H]2C(=O)N(C)C2(CCC2)C(=O)N(C)[C@@H](C2CCCC2)C(=O)N(C)[C@H](C(=O)N(C)C)CC(=O)N1C", "note": "[PP2381]", "values": [{"measurement": "NRAS/KRAS (ratio of KD value with respect to NRAS to KD value with respect to KRAS)", "setting": "[1]; SPR", "result": "A (a compound having 10 or more and less than 20 is denoted as A)"}, {"measurement": "HRAS/KRAS (ratio of KD value with respect to HRAS to KD value with respect to KRAS)", "setting": "[2]; SPR", "result": "A (a compound having 10 or more and less than 20 is denoted as A)"}]}, {"compound": "CCO[C@@H]1C[C@H]2C(=O)NC3(CC(C)(C)C3)C(=O)N(C)[C@@H](C(CC)CC)C(=O)N(C)[C@H](C(=O)N3CCCC3)CC(=O)N(C)[C@@H](C)C(=O)N[C@@H]([C@@H](C)CC)C(=O)N(C)CC(=O)N(C)[C@H]3C/C=C\\CCN(C3=O)[C@@H](Cc3ccc(C)cc3)C(=O)N(C)CC(=O)N[C@@H](CCc3cc(F)c(C(F)(F)F)c(F)c3)C(=O)N2C1", "note": "[PP2145]", "values": [{"measurement": "NRAS/KRAS (ratio of KD value with respect to NRAS to KD value with respect to KRAS)", "setting": "[1]; SPR", "result": "A (a compound having 10 or more and less than 20 is denoted as A)"}, {"measurement": "HRAS/KRAS (ratio of KD value with respect to HRAS to KD value with respect to KRAS)", "setting": "[2]; SPR", "result": "A (a compound having 10 or more and less than 20 is denoted as A)"}]}]}
